Assay results taken from patent publication US6835819B2, “Sequences and their use” (Metcon Medicin AB, priority 2000, dated 2004).

Columns and labels:
Type in all cases: cell-based, mouse
[1] = system: IRS-2 mRNA; experiment: IRS-2 mRNA expression (Northern blots) in differentiated 3T3-L1 adipocytes; conditions: for effect on IRS-2 gene expression: FIG. 2: 10 μM darglitazone with 100 nM insulin, 10 μM WY14643 with or without insulin, 100 nM progesterone, 200 μM 8-BrcAMP
Procedure: (§1) 3T3-L1 fibroblasts were grown and differentiated into adipocytes according to Rubin et al., 1977). At least 90% of the cells had acquired the adipocyte phenotype 6 days after initiating differentiation. Eight days after differentiation, the medium was changed and the various agents added for the times indicated in the Results.
(§2) Total cellular RNA was isolated from cells with guanidinium thiocyanate, as described (Chirgwin et al. 1979). Northern blot analyses were performed on total cellular RNA (30 μg) with labeled cDNA probes made against β-actin as housekeeping gene, mouse IRS-1 (bp 1333-2335) and mouse IRS-2 (bp 2987-3325) (kindly provided by Drs. J. Pierce and L-M Wang, NCI, NIH), rodent GLUT4 (bp 121-2128, Accession Nr NM 001042, kindly provided by Dr. Sam W. Cushman, NIDDK, NIH) and PKB/Akt using a PCR fragment against PKBβ (bp 282-1130, Accession Nr M95936) in a common sequence for PKBα, PKBβ and PKBγ. 5′ sequence […] and 3′ sequence […] were used as PCR primers (SEQ. ID. NO. 13 and 14, respectively).

[2] = system: IRS-1 protein; experiment: IRS-1 protein expression (immunoblot) in differentiated 3T3-L1 cells
Procedure: (§3) 3T3-L1 fibroblasts were grown and differentiated into adipocytes according to Rubin et al., 1977). At least 90% of the cells had acquired the adipocyte phenotype 6 days after initiating differentiation. Eight days after differentiation, the medium was changed and the various agents added for the times indicated in the Results. Cell lysates were prepared as described by Rondinone et al. 1997. Equal amounts of protein were separated by SDS/PAGE, transferred and immunoblotted with appropriate antibodies against the specific proteins. Phosphotyrosines were immunoblotted with antibody PY99 (Transduction Laboratories, Lexington, N.Y.), GLUT4 with an antibody kindly provided by Dr. Sam W. Cushman (NIDDK, NIH), IRS-1 and IRS-2 with antibodies from Upstate Biotechnology, Inc. (Lake Placid, N.Y.) and PKB/Akt with antibodies from Biolab (Boston, Mass.). Immunoprecipitations were performed as described (Rondinone et at., 1997) and individual proteins were detected by blotting with horseradish peroxidase-linked secondary antibodies and using enhanced chemiluminescence (Nycomed Amersham plc., UK).

[3] = system: IRS-2 protein; experiment: IRS-2 protein expression (immunoblot) in differentiated 3T3-L1 cells
Procedure: as §3

[4] = system: PKB/Akt mRNA; experiment: PKB/Akt mRNA expression (Northern blots) in differentiated 3T3-L1 adipocytes; conditions: 48 hrs; insulin alone or combined with PPARγ ligand; same experiments as IRS-2
Procedure: as §1, §2

[5] = system: IRS-1 mRNA; experiment: IRS-1 mRNA expression (Northern blots) in differentiated 3T3-L1 adipocytes; conditions: 48 hrs; insulin alone or combined with PPARγ ligand; same experiments as IRS-2
Procedure: as §1, §2

[6] = system: PKB/Akt phosphorylation; experiment: Acute insulin-stimulated PKB/Akt phosphorylation (immunoblot) in pre-cultured 3T3-L1 adipocytes; conditions: cells cultured with agent alone for 48 hrs, serum-starved 3 hrs, then 100 nM insulin 10 min
Procedure: Lysates were prepared from cells that had been cultured for 48 hrs as in FIG. 3A, serum-starved for 3 hrs, and then stimulated with 100 nM insulin for 10 min. Following separation on 7.5% SDS-PAGE, the proteins were immunoblotted with antibodies recognizing insulin-stimulated phosphoserine (PS-PKB) and phosphothreonine (PThr-PKB) PKB/Akt.
To study the acute effect of insulin, the cells were serum-deprived for 3 hrs before adding 100 nM insulin for 15 min.
The present inventor also examined the acute effect of insulin on down-stream activation of PKB/Akt in cells that had been cultured with pioglitazone for 48 hrs, washed and serum-starved for 3 hrs in fresh medium. […] Insulin (100 nM) was then added for 10 min to the serum-starved cells.

[7] = system: PKB/Akt protein; experiment: PKB/Akt protein expression in differentiated 3T3-L1 cells; conditions: pioglitazone and/or insulin for 48 hrs
Procedure: as §3

With `CCc1ccc(CCOc2ccc(CC3SC(=O)NC3=O)cc2)nc1` (stereo not drawn) [pioglitazone] the “average increase of IRS-2 mRNA expression” value ([1]; 1 μM, n=2) was 230%, the “increase of IRS-2 mRNA” value ([1]; 10 μM pioglitazone in combination with 100 nM insulin, 48 hrs (FIG. 1A top)) was ~4 fold and the “average increase of IRS-2 mRNA expression” value ([1]; 10 μM, same experiments as 1 μM, n=2) was 292%. The “increase of IRS-2 mRNA levels relative to β-actin mRNA” value ([1]; after 48 hrs, 5 experiments (FIG. 1B top)) was 3-5 fold, the “change of IRS-1 protein expression” value ([2]; insulin and pioglitazone combined, three experiments, range 18-39%) was −31% and the “change of IRS-1 protein expression” value ([2]; pioglitazone alone, three experiments) was “+7%”. The “average increase of IRS-2 protein expression” value ([3]; after 48 hrs) was 36%.

With `Cc1oc(-c2ccccc2)nc1CCC(=O)c1ccc(CC2SC(=O)NC2=O)cc1` (stereo not drawn) [darglitazone] the “gene expression of PKB/Akt” value [4] was “Neither insulin alone nor when combined with the PPARγ ligands, pioglitazone or darglitazone (not shown), altered” and the “gene expression of IRS-1” value [5] was “Neither insulin alone nor when combined with the PPARγ ligands, pioglitazone or darglitazone (not shown), altered”.

In the case of `Nc1ncnc2c1nc(Br)n2[C@@H]1O[C@@H]2COP(=O)(O)O[C@H]2[C@H]1O` [8-BrcAMP], the “effect on IRS-2 gene expression” value ([1]; 48 hrs) is reported as “no effects were seen”.

In the case of `CC(=O)[C@H]1CC[C@H]2[C@@H]3CCC4=CC(=O)CC[C@]4(C)[C@H]3CC[C@]12C` [progesterone], the “effect on IRS-2 gene expression” value ([1]; 48 hrs) is reported as “no effects were seen”.

In the case of `Cc1cccc(Nc2cc(Cl)nc(SCC(=O)O)n2)c1C` [WY14643], the “average increase of IRS-2 mRNA expression” value ([1]; 10 μM, n=2, also when insulin was added (FIG. 2 middle)) is reported as 9%, the “effect on IRS-2 gene expression” value ([1]; 48 hrs) is reported as “completely without effect” and the “gene expression of PKB/Akt” value [4] is reported as “no effect was seen”. The “gene expression of IRS-1” value [5] was “no effect was seen”.

In the case of insulin, the “further increase of IRS-2 mRNA by addition of insulin to pioglitazone” value ([1]; 100 nM insulin added to 10 μM pioglitazone, 48 hrs (FIG. 1A bottom)) is reported as “no further increase”, the IRS-2 gene expression ([1]; insulin alone (100 nM), 48 hrs) is reported as “did not change” and the “gene expression of PKB/Akt” value [4] is reported as “Neither insulin alone nor when combined with the PPARγ ligands, pioglitazone or darglitazone (not shown), altered”. The “acute effect of insulin on PKB/Akt phosphorylation” value [6] was “markedly reduced”, the PKB/Akt protein expression [7] was “not changed” and the “decrease of IRS-1 protein expression” value ([2]; insulin alone, three experiments, range 25-39%) was 33%. The IRS-1 protein expression ([2]; pioglitazone alone or insulin alone, chronic (FIG. 3B bottom)) was “reduced”, the IRS-2 protein expression ([3]; 48 hrs, 10 μM pioglitazone or 100 nM insulin (FIG. 1B bottom)) was “not changed” and the “gene expression of IRS-1” value [5] was “Neither insulin alone nor when combined with the PPARγ ligands, pioglitazone or darglitazone (not shown), altered”.
